Test results published in ChEMBL document CHEMBL1201862, “PubChem BioAssay data set” (2004).
Activity calls are given as the source filed them.

How the values were obtained:
[1] = molecular target: T1, Dual specificity protein phosphatase 3 (Homo sapiens, UniProt P51452); experiment: inhibition constants for human DUSP3 – biochemical, colorimetric, SAR follow-up (AID 2004)
[2] = molecular target: T2, Intestinal-type alkaline phosphatase (Homo sapiens, UniProt P09923); experiment: Dose Response confirmation of uHTS hits from a small molecule inhibitors of human intestinal alkaline phosphatase via a luminescent assay. [Related pubchem assays (depositor defined):AID2544, AID2574]; assay type: functional
[3] = molecular target: T2, Intestinal-type alkaline phosphatase; experiment: human intestinal alkaline phosphatase activators, dose response, biochemical, luminescence, uHTS hits (AID 463120); assay type: functional
[4] = molecular target: Cyclin-dependent kinase 5/CDK5 activator 1 (Homo sapiens, UniProt Q00535); experiment: blockade of human CDK5 activity – biochemical, cherry-picked samples, set 2, dose response (AID 504545)
[5] = molecular target: T3, Rac GTPase-activating protein 1 (Homo sapiens, UniProt Q9H0H5); experiment: blockers of MgcRacGAP-driven Rac1 GTP hydrolysis – biochemical, ADP Hunter fluorescence, primary and confirmatory, confirmation (AID 624330); assay type: functional
T3 sequence (Q9H0H5 whole entry): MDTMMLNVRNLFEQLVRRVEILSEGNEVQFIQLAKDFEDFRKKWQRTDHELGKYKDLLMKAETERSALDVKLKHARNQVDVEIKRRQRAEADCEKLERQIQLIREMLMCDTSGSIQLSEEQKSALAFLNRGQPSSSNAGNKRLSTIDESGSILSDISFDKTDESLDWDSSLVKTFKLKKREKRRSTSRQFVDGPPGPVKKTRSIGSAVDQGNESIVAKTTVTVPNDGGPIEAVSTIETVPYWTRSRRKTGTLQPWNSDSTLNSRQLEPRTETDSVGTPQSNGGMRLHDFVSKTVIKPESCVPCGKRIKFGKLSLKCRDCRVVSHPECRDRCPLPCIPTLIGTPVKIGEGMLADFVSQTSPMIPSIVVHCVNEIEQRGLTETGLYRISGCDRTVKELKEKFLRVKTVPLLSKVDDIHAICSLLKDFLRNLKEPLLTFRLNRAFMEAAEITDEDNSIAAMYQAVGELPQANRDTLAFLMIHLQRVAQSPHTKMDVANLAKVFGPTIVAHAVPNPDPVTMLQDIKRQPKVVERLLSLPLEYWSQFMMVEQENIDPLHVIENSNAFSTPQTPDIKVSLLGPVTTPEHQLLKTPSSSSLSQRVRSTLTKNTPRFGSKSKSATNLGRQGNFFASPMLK

[6] = molecular target: G-protein coupled receptor 55 (Homo sapiens, UniProt Q9Y2T6); experiment: selective activators of receptor GPR55 – imaging, U2OS cells, beta-arrestin-GFP redistribution, primary screen (AID 1961); assay type: functional
[7] = molecular target: Eukaryotic translation initiation factor 4H (Homo sapiens, UniProt Q15056); experiment: eIF4H binding inhibition – biochemical, uHTS, fluorescence polarization, translation initiation inhibitor project, primary screen (AID 2012)
[8] = molecular target: Polyadenylate-binding protein 1 (Homo sapiens, UniProt P11940); experiment: blockers of PABP interaction with poly(A) – biochemical, fluorescence polarization, […] (AID 2014)
[9] = molecular target: DNA dC->dU-editing enzyme APOBEC-3A (Homo sapiens, UniProt P31941); experiment: Dose Response confirmation of small molecule APOBEC3A DNA Deaminase Inhibitors via a fluorescence-based single-stranded DNA deaminase assay. [Related pubchem assays (depositor defined):AID493011, AID493024]; assay type: functional
[10] = molecular target: DNA dC->dU-editing enzyme APOBEC-3G (Homo sapiens, UniProt Q9HC16); assay type: functional;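 also: Dose-response counterscreen measuring inhibition of APOBEC3G DNA deaminase activity, run while confirming APOBEC3A inhibitors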
[11] = molecular target: Peroxisome proliferator-activated receptor gamma/Nuclear receptor corepressor 2 (Homo sapiens, UniProt P37231+Q9Y618); experiment: Counterscreen for NR2E3 inverse agonists: TR-FRET-based biochemical high throughput dose response assay to identify inverse agonists of the interaction between peroxisome proliferator-activated receptor gamma (PPARg) and nuclear receptor co-repressor 2 (NCOR2).; assay type: functional
[12] = molecular target: Photoreceptor-specific nuclear receptor (Homo sapiens, UniProt Q9Y5X4); experiment: ligands suppressing NR2E3 nuclear receptor activity – biochemical, TR-FRET, dose response (AID 463256); assay type: functional
[13] = molecular target: T4, Tyrosine-protein phosphatase non-receptor type 7 (Homo sapiens, UniProt P35236); experiment: Dose Response confirmation of compounds that inhibit HePTP. [Related pubchem assays (depositor defined):AID1059, AID1661, AID2085]; assay type: functional
T4 sequence (P35236 whole entry): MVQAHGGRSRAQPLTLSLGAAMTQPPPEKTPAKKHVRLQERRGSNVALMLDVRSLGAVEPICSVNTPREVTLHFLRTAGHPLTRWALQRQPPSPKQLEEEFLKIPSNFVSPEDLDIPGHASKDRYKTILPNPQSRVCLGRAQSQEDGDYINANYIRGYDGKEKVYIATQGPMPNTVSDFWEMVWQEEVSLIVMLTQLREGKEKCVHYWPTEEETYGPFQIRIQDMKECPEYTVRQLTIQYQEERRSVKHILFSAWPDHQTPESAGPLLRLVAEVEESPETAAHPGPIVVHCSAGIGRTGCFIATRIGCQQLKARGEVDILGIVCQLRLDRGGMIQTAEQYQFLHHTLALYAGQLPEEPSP

[14] = molecular target: T1, Dual specificity protein phosphatase 3; experiment: Dose Response Confirmation of compounds that inhibit VHR1 in Fluorescent Assay. [Related pubchem assays (depositor defined):AID1661, AID1878]; assay type: functional
[15] = blockers of SFLLRN-triggered platelet ATP secretion – cell-based, human platelets, luminescence, dry powder, dose response (AID 493100); assay type: functional

T2 sequence (P09923 whole entry): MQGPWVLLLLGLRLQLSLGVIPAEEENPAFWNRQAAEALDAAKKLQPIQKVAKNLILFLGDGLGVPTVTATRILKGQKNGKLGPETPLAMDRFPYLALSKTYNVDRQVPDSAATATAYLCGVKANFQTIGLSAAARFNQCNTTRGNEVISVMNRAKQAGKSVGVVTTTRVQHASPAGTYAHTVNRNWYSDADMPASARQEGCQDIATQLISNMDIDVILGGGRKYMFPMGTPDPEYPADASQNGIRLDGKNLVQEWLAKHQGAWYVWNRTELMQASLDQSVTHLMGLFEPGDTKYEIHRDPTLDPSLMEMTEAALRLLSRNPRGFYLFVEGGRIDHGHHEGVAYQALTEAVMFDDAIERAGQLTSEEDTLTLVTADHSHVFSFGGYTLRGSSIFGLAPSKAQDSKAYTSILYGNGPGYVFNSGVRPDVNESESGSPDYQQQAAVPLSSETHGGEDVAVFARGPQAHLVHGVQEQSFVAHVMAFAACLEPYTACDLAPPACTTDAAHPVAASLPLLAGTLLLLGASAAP
T1 sequence (P51452 whole entry): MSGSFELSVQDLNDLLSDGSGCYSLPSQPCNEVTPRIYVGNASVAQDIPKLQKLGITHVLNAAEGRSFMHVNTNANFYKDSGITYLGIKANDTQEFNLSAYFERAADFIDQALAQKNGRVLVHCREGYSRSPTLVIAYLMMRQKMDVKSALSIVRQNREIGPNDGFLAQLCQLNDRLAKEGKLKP
G-protein coupled receptor 55, sequence (Q9Y2T6 whole entry): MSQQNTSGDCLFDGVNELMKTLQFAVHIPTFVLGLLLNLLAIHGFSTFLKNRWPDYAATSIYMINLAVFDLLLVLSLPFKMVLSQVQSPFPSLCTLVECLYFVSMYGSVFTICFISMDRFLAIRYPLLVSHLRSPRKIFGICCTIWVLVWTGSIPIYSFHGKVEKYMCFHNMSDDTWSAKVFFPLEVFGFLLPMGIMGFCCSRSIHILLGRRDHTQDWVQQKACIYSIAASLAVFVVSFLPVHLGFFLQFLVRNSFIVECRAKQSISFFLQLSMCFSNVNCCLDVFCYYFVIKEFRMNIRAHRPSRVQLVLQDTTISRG
DNA dC->dU-editing enzyme APOBEC-3A, sequence (P31941 whole entry): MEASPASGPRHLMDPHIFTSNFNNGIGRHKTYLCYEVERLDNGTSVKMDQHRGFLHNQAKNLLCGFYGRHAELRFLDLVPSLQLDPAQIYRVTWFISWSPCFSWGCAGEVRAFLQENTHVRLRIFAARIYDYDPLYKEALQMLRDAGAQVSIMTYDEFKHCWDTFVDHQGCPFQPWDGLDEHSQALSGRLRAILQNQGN
Cyclin-dependent kinase 5/CDK5 activator 1, sequence (Q00535 whole entry): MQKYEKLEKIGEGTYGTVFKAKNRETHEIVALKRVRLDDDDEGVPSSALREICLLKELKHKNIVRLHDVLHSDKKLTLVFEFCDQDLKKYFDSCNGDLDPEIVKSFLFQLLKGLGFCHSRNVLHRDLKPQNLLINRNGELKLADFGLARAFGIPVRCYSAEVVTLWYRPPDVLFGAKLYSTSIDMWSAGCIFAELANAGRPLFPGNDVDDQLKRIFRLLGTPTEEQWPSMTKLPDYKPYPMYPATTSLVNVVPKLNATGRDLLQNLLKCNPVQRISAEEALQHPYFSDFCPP
Cyclin-dependent kinase 5/CDK5 activator 1, sequence (Q15078 whole entry, further chain): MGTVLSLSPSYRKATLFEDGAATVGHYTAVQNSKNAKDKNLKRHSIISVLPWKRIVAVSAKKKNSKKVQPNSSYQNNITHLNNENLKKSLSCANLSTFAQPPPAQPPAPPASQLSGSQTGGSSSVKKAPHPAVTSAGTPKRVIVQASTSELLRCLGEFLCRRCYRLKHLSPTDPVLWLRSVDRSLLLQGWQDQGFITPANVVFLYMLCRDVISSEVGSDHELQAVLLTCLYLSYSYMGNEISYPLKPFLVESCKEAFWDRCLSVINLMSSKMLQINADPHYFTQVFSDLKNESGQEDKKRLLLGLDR
Peroxisome proliferator-activated receptor gamma/Nuclear receptor corepressor 2, sequence (P37231 whole entry): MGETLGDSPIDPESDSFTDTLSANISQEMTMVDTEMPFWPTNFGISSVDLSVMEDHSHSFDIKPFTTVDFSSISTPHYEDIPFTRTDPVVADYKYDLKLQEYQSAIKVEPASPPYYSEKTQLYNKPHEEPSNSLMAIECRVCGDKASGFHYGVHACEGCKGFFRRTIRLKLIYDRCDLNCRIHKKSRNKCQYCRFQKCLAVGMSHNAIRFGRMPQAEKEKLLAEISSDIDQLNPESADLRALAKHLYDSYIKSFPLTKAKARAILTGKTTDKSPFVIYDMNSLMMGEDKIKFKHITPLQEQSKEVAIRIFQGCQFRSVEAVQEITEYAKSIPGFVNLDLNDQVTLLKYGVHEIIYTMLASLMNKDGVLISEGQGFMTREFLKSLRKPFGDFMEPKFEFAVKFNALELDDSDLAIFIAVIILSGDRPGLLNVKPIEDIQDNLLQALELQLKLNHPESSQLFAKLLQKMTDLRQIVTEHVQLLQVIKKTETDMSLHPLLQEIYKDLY
Peroxisome proliferator-activated receptor gamma/Nuclear receptor corepressor 2, sequence (Q9Y618 whole entry): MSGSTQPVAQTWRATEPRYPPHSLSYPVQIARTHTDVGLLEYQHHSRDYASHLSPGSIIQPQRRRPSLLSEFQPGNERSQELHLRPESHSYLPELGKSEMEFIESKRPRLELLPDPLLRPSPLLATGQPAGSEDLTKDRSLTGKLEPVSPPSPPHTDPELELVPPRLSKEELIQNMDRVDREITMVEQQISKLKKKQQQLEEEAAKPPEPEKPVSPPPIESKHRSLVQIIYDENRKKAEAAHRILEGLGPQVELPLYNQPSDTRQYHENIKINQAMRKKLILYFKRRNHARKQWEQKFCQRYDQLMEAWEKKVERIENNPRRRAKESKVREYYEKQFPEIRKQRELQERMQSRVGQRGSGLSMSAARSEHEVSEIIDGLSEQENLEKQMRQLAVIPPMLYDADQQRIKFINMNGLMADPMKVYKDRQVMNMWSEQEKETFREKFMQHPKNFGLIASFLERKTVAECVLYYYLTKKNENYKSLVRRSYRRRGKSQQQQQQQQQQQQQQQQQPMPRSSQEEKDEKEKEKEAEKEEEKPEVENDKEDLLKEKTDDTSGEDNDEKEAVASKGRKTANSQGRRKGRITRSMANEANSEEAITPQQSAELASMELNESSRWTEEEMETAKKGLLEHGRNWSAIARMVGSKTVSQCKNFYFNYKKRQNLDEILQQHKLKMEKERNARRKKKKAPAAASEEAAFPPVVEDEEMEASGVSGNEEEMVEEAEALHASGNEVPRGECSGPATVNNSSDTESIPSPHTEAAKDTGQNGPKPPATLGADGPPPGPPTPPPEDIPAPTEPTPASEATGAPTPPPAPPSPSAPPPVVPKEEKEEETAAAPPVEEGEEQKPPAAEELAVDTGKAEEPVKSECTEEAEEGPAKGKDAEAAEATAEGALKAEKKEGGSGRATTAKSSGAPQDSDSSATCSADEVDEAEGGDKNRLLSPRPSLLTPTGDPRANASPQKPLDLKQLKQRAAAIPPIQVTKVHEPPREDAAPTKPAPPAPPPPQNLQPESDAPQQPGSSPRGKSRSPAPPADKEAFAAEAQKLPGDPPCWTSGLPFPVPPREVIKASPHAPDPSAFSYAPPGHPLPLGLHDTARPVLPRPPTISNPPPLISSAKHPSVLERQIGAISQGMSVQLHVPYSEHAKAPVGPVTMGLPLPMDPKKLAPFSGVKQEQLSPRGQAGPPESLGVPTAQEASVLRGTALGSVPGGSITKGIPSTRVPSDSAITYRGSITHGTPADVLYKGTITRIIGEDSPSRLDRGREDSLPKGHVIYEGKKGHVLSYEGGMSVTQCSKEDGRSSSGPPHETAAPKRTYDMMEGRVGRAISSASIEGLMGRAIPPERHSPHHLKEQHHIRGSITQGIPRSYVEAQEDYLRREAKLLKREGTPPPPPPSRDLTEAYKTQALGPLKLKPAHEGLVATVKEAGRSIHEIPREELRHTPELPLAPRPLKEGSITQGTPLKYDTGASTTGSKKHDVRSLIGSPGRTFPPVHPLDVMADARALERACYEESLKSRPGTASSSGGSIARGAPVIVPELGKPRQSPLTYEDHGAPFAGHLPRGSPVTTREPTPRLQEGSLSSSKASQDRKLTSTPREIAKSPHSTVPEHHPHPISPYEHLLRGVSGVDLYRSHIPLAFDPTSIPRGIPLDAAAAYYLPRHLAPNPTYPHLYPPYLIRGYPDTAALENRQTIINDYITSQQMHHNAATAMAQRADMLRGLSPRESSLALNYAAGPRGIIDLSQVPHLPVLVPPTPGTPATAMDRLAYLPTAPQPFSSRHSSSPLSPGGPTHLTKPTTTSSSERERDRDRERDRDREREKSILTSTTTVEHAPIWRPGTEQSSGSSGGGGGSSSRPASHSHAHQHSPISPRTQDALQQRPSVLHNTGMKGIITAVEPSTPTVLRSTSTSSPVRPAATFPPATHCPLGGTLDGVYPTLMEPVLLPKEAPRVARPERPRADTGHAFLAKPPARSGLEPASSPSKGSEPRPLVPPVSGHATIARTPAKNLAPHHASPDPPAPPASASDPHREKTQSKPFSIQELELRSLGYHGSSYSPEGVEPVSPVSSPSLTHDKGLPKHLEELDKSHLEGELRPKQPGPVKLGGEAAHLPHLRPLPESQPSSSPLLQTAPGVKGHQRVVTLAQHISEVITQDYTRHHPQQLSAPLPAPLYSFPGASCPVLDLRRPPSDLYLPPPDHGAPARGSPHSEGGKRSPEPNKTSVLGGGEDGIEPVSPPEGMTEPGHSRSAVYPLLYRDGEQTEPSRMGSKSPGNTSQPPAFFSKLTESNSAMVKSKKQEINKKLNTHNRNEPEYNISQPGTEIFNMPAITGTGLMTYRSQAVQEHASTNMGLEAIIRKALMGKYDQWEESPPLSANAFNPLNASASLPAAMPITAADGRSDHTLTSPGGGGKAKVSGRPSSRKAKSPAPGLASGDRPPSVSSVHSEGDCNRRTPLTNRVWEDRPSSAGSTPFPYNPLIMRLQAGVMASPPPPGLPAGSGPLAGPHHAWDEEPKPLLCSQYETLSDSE

In the case of `CCN(CC)c1ccc(Nc2nc(-c3sc(N)nc3C)cs2)cc1`, the Ki [1] is reported as 30.2 µM (inactive).
For `O=S(=O)(c1ccccc1)N1CCCC1c1cccs1` (stereo not given), the IC50 [2] was > 100 µM (inactive) and the EC50 [3] was > 100 µM (inactive).
In the case of `ON=C1c2ccccc2-c2ccc(O)cc21`, the AC50 [4] is reported as 17.6 µM (active) and the IC50 [5] is reported as 23.6 µM (active).
For `COc1ccc2cc(C)c3nnc(SCC(=O)Nc4nc(-c5ccccc5)cs4)n3c2c1`, the EC50 [6] was 1.03 µM (active).
With `Cn1ccccc1=Nc1cccc[n+]1C` the IC50 [7] was > 100 µM (inactive), the IC50 [8] was 6.54 µM (active) and the IC50 [9] was 2.8 µM (active). The IC50 [10] was 4.12 µM (active).
For `O=C(Nc1ccc2oc(-c3cccnc3)nc2c1)c1ccc2c(c1)OCCO2`, the IC50 [11] was 1.46 µM (active), the IC50 [12] was 1.61 µM (active) and the IC50 [13] was 5.36 µM (active). For the same compound, the IC50 [14] was 8.43 µM (active).
In the case of `O=C(Nc1cccc(NC(=O)C2CCCC2)c1)c1ccccc1Br`, the AC50 [15] is reported as 8.81 µM (active).
